# From US6005007A, “Retinoids, methods for their production and use” (priority 1997, dated 1999)
# Read-outs that look alike come from different tables or passages of the source.
# Legend:
# ME 180 = test: Incorporation of 3H-thymidine, ME 180; type: cell-based; conditions: Homo sapiens
# AML-193 = test: Incorporation of 3H-thymidine, AML-193; conditions: Homo sapiens, read-out: TdR IC50 AML-193 (nM)
# RARγ [1] = biological target: T1, RARγ (Homo sapiens, UniProt P13631); test: Co-transfection assay, RARγ agonist activity; type: cell-based; design: expressed in transfected cells; host or cells: CV-1 (African green monkey kidney fibroblasts); conditions: CV-1 cells, luciferase reporter, read-out: RARγ Pot
# T1 sequence (P13631 1-454): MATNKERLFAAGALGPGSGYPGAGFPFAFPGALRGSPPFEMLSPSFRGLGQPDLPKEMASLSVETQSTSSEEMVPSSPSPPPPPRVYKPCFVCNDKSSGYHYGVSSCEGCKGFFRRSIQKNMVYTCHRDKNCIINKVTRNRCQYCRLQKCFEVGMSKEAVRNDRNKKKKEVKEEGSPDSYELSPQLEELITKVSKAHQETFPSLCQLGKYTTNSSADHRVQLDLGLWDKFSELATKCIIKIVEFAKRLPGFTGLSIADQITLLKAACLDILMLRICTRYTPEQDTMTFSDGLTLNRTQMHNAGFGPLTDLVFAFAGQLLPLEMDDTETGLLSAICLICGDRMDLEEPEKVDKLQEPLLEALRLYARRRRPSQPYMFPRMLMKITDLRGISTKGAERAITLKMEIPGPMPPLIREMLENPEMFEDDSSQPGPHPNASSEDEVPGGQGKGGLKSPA
# RARα [2] = biological target: T2, RARα (Homo sapiens, UniProt P10276); test: Co-transfection assay, RARα agonist activity; type: cell-based; design: expressed in transfected cells; host or cells: CV-1 (African green monkey kidney fibroblasts); conditions: CV-1 cells, luciferase reporter, read-out: RARα Pot
# T2 sequence (P10276 1-462): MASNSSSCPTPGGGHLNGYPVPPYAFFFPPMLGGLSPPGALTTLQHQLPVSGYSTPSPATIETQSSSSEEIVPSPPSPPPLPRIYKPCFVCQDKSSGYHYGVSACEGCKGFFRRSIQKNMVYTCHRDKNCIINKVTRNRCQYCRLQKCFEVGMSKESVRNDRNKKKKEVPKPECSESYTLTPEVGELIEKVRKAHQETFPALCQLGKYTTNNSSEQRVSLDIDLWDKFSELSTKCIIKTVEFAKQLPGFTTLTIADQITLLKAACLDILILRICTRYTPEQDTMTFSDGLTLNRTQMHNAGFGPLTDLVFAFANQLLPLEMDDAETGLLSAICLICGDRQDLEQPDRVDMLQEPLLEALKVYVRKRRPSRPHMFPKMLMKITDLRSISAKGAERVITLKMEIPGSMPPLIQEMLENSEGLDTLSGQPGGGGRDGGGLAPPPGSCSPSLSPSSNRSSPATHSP
# RARα [3] = biological target: T2, RARα; test: Receptor binding, RARα; conditions: tritiated retinoid competition
# RARγ [4] = biological target: T1, RARγ; test: Receptor binding, RARγ; conditions: tritiated retinoid competition
# RXRγ = biological target: T3, RXRγ (Mus musculus, UniProt P28705); test: Receptor binding, RXRγ; conditions: tritiated retinoid competition
# T3 construct: expressed in transfected cells; host or cells: CV-1 (African green monkey kidney fibroblasts)
# T3 sequence (P28705 1-463): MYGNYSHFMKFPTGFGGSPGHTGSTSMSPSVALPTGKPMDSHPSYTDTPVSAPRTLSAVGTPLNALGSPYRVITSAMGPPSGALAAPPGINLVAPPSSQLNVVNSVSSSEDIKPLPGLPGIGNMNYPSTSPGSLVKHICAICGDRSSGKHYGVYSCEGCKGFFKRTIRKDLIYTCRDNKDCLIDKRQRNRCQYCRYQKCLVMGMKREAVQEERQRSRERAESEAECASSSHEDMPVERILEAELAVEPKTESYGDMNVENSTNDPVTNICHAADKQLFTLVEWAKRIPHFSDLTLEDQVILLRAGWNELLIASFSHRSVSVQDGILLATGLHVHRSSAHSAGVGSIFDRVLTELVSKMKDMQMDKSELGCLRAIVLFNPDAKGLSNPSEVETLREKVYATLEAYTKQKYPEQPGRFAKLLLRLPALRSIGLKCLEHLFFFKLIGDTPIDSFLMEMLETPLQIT
# RARβ [5] = biological target: T4, RARβ (Homo sapiens, UniProt P10826); test: Receptor binding, RARβ; conditions: tritiated retinoid competition
# T4 sequence (P10826 1-448 isoform P10826-2): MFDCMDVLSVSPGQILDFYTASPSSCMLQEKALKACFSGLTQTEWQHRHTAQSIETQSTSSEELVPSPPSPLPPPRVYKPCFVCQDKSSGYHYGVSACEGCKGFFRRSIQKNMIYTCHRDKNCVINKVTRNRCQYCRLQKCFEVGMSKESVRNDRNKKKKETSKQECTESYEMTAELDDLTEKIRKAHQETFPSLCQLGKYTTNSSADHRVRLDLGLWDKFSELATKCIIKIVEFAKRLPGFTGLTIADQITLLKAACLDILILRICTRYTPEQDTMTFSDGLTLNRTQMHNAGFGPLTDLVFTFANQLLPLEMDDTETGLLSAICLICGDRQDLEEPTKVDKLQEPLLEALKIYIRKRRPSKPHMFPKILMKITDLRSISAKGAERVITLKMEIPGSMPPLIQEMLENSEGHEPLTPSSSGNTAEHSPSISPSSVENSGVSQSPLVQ
# RARβ [6] = biological target: T4, RARβ; test: Co-transfection assay, RARβ agonist activity; type: cell-based; design: expressed in transfected cells; host or cells: CV-1 (African green monkey kidney fibroblasts); conditions: CV-1 cells, luciferase reporter, read-out: RARβ Pot
# RPMI 8226 = test: Incorporation of 3H-thymidine, RPMI 8226; type: cell-based; conditions: Homo sapiens, 96 hours incubation, then 6 hours 3H-thymidine, read-out: TdR IC50 RPMI 8226
Kd (RARα [3]) [nM],Kd (RARγ [4]) [nM],Kd (RARβ [5]) [nM],SMILES,IC50 (AML-193) [nM],other results
,,,"CC1=C(/C=C/C(C)=C\C=C\C(C)=C\C(=O)O)C(C)(C)CCC1 [Compound 9-cis, 9-cis retinoic acid]",113,"IC50 (ME 180; ME-180, read-out: TdR IC50 ME 180 (nM)): 180 nM"
> 5000,> 5000,> 5000,"CC(/C=C/CC1(c2cc3c(cc2C)C(C)(C)CCC3(C)C)CC1)=C\C(=O)O [Compound 102, (2E, 4E)-6-[(3,5,5,8,8-Pentamethyl-5,6,7,8-tetrahydronaphthalen-2-yl)cyclopropan-1-yl]-3-methyl hexadienoic acid]",,EC50 (RARγ [1]): > 10000 nM; EC50 (RARα [2]): > 10000 nM; Kd (RXRγ): 153 nM; EC50 (RARβ [6]): > 10000 nM
> 5000,> 5000,> 5000,"CC(/C=C/CC1(c2cc(C(C)(C)C)cc(C(C)(C)C)c2)CC1)=C\C(=O)O [Compound 105, (2E, 4E)-6-[(3,5-di-t-butylphenyl)cyclopropan-1-yl]-3-methyl hexadienoic acid]",,
,,,C/C(=C\c1ccc(C(=O)O)cc1)c1ccc2c(c1)C(C)(C)CCC2(C)C [TTNPB],0.1,"IC50 (ME 180; ME-180, 96 hours incubation, then 6 hours 3H-thymidine, read-out: TdR IC50 ME 180): 0.4 nM; IC50 (RPMI 8226): 0.2 nM"
